Where two headings read alike, the source gives them in different places.
How the values were obtained:
[1] = test system: PI3Kα H1047R mutation cell line T-47D; test: Cell Proliferation IC50 Assay (CellTiter-Glo), T-47D; assay type: cell-based; settings: Homo sapiens, T47D (H1047R), 72 hours, CellTiter-Glo, read-out: IC50 (μM) T47D
From the text: (§1) PI3Kα H1047R mutation cell line T-47D and MDA-MB-453, E545K mutation cell line MDA-MB-361 and PI3Kα wide type cell line SK-BR-3 were purchased from Cobioer Biotech (cat. no CBP60397, CBP60386, CBP60383 and CBP60413 respectively). The CellTiter-Glo Direct Cell Proliferation Assay Kit was purchased from Prornega (cat. No. G7573)
(§2) For cell proliferation assay in each cell line: • a. Prepare complete medium (R PMI 1640, DMEM or McCoys): Add FBS and appropriate additives according to the information sheet provided by the vendor. Mix gently. • b. Prepare single cell suspension and count the cell numbers and adjust cells to appropriate density. • c. Add 80 μL of cell suspension to 96-well opaque-walled clear bottom plates according to the planned plate layout and place the plates in the CO2 incubator overnight. • d. Prepare intermediate plate: 10 μl of diluted test compounds or staurosporine solution (200×) is added to a 96 deep well plate. Then 390 μl of culture medium without FBS is added to the respective wells. • e. Transfer 20 μL of the solutions from the above intermediate plate to the wells of the plate prepared containing 80 μL of the culture medium and cells. The total dilution is 200 folds. • f. The cells were then incubated at 5% CO2, 37° C. for 72 hours. • g. Equilibrate the plate and its contents to room temperature for approximately 30 minutes. • h. Add 100 μL of CellTiter-Glo reagent to the assay plate • i. Mix contents for 10 minutes on an orbital shaker to induce cell lysis. • j. Allow the plate to incubate at room temperature for 10 minutes to stabilize luminescent signal, • k. Paste the clear bottom with white back seal and record luminescence with Varioskan LUX plate reader.
(§3) Inhibition % and IC50 value were calculated by the formula described below: […]

[2] = test system: PI3Kα wide type cell line SK-BR-3; test: Cell Proliferation IC50 Assay (CellTiter-Glo), SK-BR-3; assay type: cell-based; settings: Homo sapiens; SK-BR-3 (PI3Kα wild type), 72 hours, CellTiter-Glo; read-out: IC50 (μM) SK-BR-3
From the text: as §1, §2, §3

Row | IC50 ([1]; T47D, 72 h) | IC50 [2] | Structure (SMILES) | IC50 [1]
1 | 6.9 µM | > 10 µM | Cc1cc(C(C)Nc2ccccc2C(=O)O)c2oc(-c3cnc(N4CCOCC4)nc3)cc(=O)c2c1 (stereo not shown) [Example 152, 2-((1-(6-methyl-2-(2-morpholinopyrimidin-5-yl)-4-oxo-4H-chromen-8-yl)ethyl)amino)benzoic acid] | –
2 | 0.29 µM | > 10 µM | CC(=O)N1CCN(c2ccc(-c3oc4c([C@@H](C)Nc5ccccc5C(=O)O)cc(C)cc4c(=O)c3C)cn2)CC1 [Example 153, (R)-2-((1-(2-(6-(4-acetylpiperazin-1-yl)pyridin-3-yl)-3,6-dimethyl-4-oxo-4H-chromen-8-yl)ethyl)amino)benzoic acid] | –
3 | 0.13 µM | > 10 µM | Cc1cc(C(C)Nc2ccccc2C(=O)NO)c2oc(-c3ccc4nn(C)cc4c3)c(C)c(=O)c2c1 (stereo not shown) [Example 156, 2-((1-(3,6-dimethyl-2-(2-methyl-2H-indazol-5-yl)-4-oxo-41H-chromen-8-yl)ethyl)amino)-N-hydroxybenzamide] | –
4 | 3.43 µM | > 10 µM | Cc1cc([C@@H](C)Nc2ccccc2C(=O)NS(=O)(=O)C2CC2)c2oc(-c3ccc4nn(C)cc4c3)cc(=O)c2c1 [Example 157, (R)—N-(cyclopropylsulfonyl)-2-((1-(6-methyl-2-(2-methyl-2H-indazol-5-yl)-4-oxo-4H-chromen-8-yl)ethyl)amino)benzamide] | –
5 | 5.5 µM | > 10 µM | Cc1cc([C@@H](C)Nc2ccccc2C(=O)NS(C)(=O)=O)c2oc(-c3ccc4nn(C)cc4c3)cc(=O)c2c1 [Example 158, (R)-2-((1-(6-methyl-2-(2-methyl-2H-indazol-5-yl)-4-oxo-4H-chromen-8-yl)ethyl)amino)-N-(methylsulfonyl)benzamide] | –
6 | 0.41 µM | > 10 µM | CC(=O)N1CCN(c2ccc(-c3oc4c(C(C)Nc5ccccc5S(N)(=O)=O)cc(C)cc4c(=O)c3C)cc2)CC1 (stereo not shown) [Example 159, 2-((1-(2-(4-(4-acetylpiperazin-1-yl)phenyl)-3,6-dimethyl-4-oxo-4H-chromen-8-yl)ethyl)amino)benzenesulfonamide] | –
7 | 0.067 µM | 6.5 µM | Cc1cc([C@@H](C)Nc2ccccc2C(=O)O)c2oc(-c3ccc(N4CCC(N(C)C)CC4)cc3)c(C)c(=O)c2c1 [Example 161, (R)-2-((1-(2-(4-(4-(dimethylamino)piperidin-1-yl)phenyl)-3,6-dimethyl-4-oxo-4H-chromen-8-yl)ethyl)amino)benzoic acid] | –
8 | 0.23 µM | > 10 µM | Cc1cc([C@@H](C)Nc2ccccc2C(=O)O)c2oc(-c3ccc(-c4cn(C)cn4)cc3)c(C)c(=O)c2c1 [Example 162, (R)-2-((1-(3,6-dimethyl-2-(4-(1-methyl-1H-imidazol-4-yl)phenyl)-4-oxo-4H-chromen-8-yl)ethyl)amino)benzoic acid] | –
9 | 0.38 µM | > 10 µM | Cc1cc([C@@H](C)Nc2ccccc2C(=O)O)c2oc(-c3ccc(-c4cnn(C)c4)nc3)cc(=O)c2c1 [Example 164, (R)-2-((1-(6-methyl-2-(6-(1-methyl-1H-pyrazol-4-yl)pyridin-3-yl)-4-oxo-4H-chromen-8-yl)ethyl)amino)benzoic acid] | –
10 | 0.042 µM | 4.39 µM | Cc1cc([C@@H](C)Nc2ccc(Cl)nc2C(=O)O)c2oc(-c3ccc(OCCN(C)C)cc3)c(C)c(=O)c2c1 [Example 165, (R)-6-chloro-3-((1-(2-(4-(2-(dimethylamino)ethoxy)phenyl)-3,6-dimethyl-4-oxo-41-1 chromen-8-yl)ethyl)amino)picolinic acid] | –
11 | 0.23 µM | > 10 µM | Cc1cc([C@@H](C)Nc2ccccc2C(=O)O)c2oc(-c3ccc(OCCN(C)C)cc3)cc(=O)c2c1 [Example 166, (R)-2-((1-(2-(4-(2-(dimethylamino)ethoxy)phenyl)-6-methyl-4-oxo-4H-1-chromen-8-yl)ethyl)amino)benzoic acid] | –

The remaining lines, values behind:

Row | Structure (SMILES) | IC50 ([1]; T47D, 72 h) | IC50 [2] | IC50 [1]
12 | Cc1cc(C(C)Nc2ccccc2C(=O)O)c2oc(-c3cc4ccncc4[nH]3)cc(=O)c2c1 (stereo not shown) [Example 117, 2-((1-(6-methyl-4-oxo-2-(1H-pyrrolo[2,3-c]pyridin-2-yl)-4H-chromen-8-yl)ethyl)amino)benzoic acid] | 0.28 µM | > 10 µM | –
13 | Cc1cc(C(C)Nc2ccccc2C(=O)O)c2oc(-c3ccc4c(=O)n(C)cnc4c3)cc(=O)c2c1 (stereo not shown) [Example 121, 2-((1-(6-methyl-2-(3-methyl-4-oxo-3,4-dihydroquinazolin-7-yl)-4-oxo-4H-chromen-8-yl)ethyl)amino)benzoic acid] | 0.76 µM | > 10 µM | –
14 | Cc1cc([C@@H](C)Nc2ccccc2C(=O)O)c2oc(-c3ccc(CN4CCCC4=O)cc3)c(C)c(=O)c2c1 [Example 135, (R)-2-((1-(3,6-dimethyl-4-oxo-2-(4-((2-oxopyrrolidin-1-yl)methyl)phenyl)-4H-chromen-8-yl)ethyl)amino)benzoic acid] | 0.18 µM | > 10 µM | –
15 | Cc1cc([C@@H](C)Nc2ccccc2C(=O)O)c2oc(-c3ccc(Cn4cncn4)cc3)c(C)c(=O)c2c1 [Example 136, (R)-2-((1-(2-(4-((1H-1,2,4-triazol-1-yl)methyl)phenyl)-3,6-dimethyl-4-oxo-4H-chromen-8-yl)ethyl)amino)benzoic acid] | > 10 µM | > 10 µM | –
16 | CC(=O)N1CCN(Cc2ccc(-c3oc4c([C@@H](C)Nc5ccccc5C(=O)O)cc(C)cc4c(=O)c3C)cc2)CC1 [Example 137, (R)-2-((1-(2-(4-((4-acetylpiperazin-1-yl)methyl)phenyl)-3,6-dimethyl-4-oxo-4H-chromen-8-yl)ethyl)amino)benzoic acid] | 0.19 µM | > 10 µM | –
17 | CC(=O)N1CCN(C(C)c2ccc(-c3oc4c([C@@H](C)Nc5ccccc5C(=O)O)cc(C)cc4c(=O)c3C)cc2)CC1 (stereo partly drawn) [Example 138, 2-(((1R)-1-(2-(4-(1-(4-acetylpiperazin-1-yl)ethyl)phenyl)-3,6-dimethyl-4-oxo-4H-chromen-8-yl)ethyl)amino)benzoic acid] | 0.083 µM | > 10 µM | –
18 | CC(=O)N1CCN(C(=O)c2ccc(-c3oc4c([C@@H](C)Nc5ccccc5C(=O)O)cc(C)cc4c(=O)c3C)cc2)CC1 [Example 139, (R)-2-((1-(2-(4-(4-acetylpiperazine-1-carbonyl)phenyl)-3,6-dimethyl-4-oxo-4H-chromen-8-yl)ethyl)amino)benzoic acid] | 1.04 µM | > 10 µM | –
19 | Cc1cc([C@@H](C)Nc2ccccc2C(=O)O)c2oc(-c3ccc(OCCN4CCOCC4)cc3)c(C)c(=O)c2c1 [Example 141, (R)-2-((1-(3,6-dimethyl-2-(4-(2-morpholinoethoxy)phenyl)-4-oxo-4H-chromen-8-yl)ethyl)amino)benzoic acid] | 0.044 µM | > 10 µM | –
20 | Cc1cc([C@@H](C)Nc2ccccc2C(=O)O)c2oc(-c3ccc(CCN4CCOCC4)cc3)c(C)c(=O)c2c1 [Example 142, (R)-2-((1-(3,6-dimethyl-2-(4-(2-morpholinoethyl)phenyl)-4-oxo-4H-chromen-8-yl)ethyl)amino)benzoic acid] | 0.043 µM | > 10 µM | –
21 | Cc1cc(C(C)Nc2ccccc2C(=O)O)c2oc(-c3ccc(-n4ccnc4)cc3)cc(=O)c2c1 (stereo not shown) [Example 143, 2-((1-(2-(4-(1H-imidazol-1-yl)phenyl)-6-methyl-4-oxo-4H-chromen-8-yl)ethyl)amino)benzoic acid] | 0.25 µM | > 10 µM | –
22 | Cc1cc(C(C)Nc2ccccc2C(=O)O)c2oc(-c3ccc(-c4cn(C)cn4)cc3)cc(=O)c2c1 (stereo not shown) [Example 144, 2-((1-(6-methyl-2-(4-(1-methyl-1H-imidazol-4-yl)phenyl)-4-oxo-4H-chromen-8-yl)ethyl)amino)benzoic acid] | 0.14 µM | > 10 µM | –
23 | CC(=O)N1CC(c2ccc(-c3cc(=O)c4cc(C)cc(C(C)Nc5ccccc5C(=O)O)c4o3)cc2)C1 (stereo not shown) [Example 145, 2-((1-(2-(4-(1-acetylazetidin-3-yl)phenyl)-6-methyl-4-oxo-4H-chromen-8-yl)ethyl)amino)benzoic acid] | 1.6 µM | > 10 µM | –
24 | Cc1cc([C@@H](C)Nc2ccccc2C(=O)O)c2oc(-c3ccc(Cn4ccnc4)cc3)c(C)c(=O)c2c1 [Example 146, (R)-2-((1-(2-(4-((1H-imidazol-1-yl)methyl)phenyl)-3,6-dimethyl-4-oxo-4H-chromen-8-yl)ethyl)amino)benzoic acid] | 0.18 µM | > 10 µM | –
25 | Cc1cc([C@@H](C)Nc2ccccc2C(=O)O)c2oc(-c3ccc(OC4CCN(C)C4)cc3)c(C)c(=O)c2c1 (stereo partly drawn) [Example 160, 2-(((1R)-1-(3,6-dimethyl-2-(4-((1-methylpyrrolidin-3-yl)oxy)phenyl)-4-oxo-4H-chromen-8-yl)ethyl)amino)benzoic acid] | – | > 10 µM | 0.065 µM
26 | Cc1cc([C@@H](C)Nc2ccccc2C(=O)O)c2oc(-c3ccc(-c4cn(C)cn4)nc3)c(C)c(=O)c2c1 [Example 163] | – | > 10 µM | 0.12 µM
